# pIC50: −log10 of the molar value.
# Assays:
# RET = target: T1, RET (Homo sapiens, UniProt P07949); experiment: FRET-based kinase profiling, RET; assay type: biochemical
# T1 construct: purchased Invitrogen
# Description: (§1) The buffer consisted of 50 mM HEPES pH 7.5, 10 mM MgCl2, 1 mM EGTA, 0.01% Brij-35. Kinase reactions were typically initiated by the addition of either ATP or the active kinase and allowed to proceed for 1 hour at room temperature (RT). Following the 1 hour kinase assay, 5 µL of development reagent was added and the development reaction allowed to progress for 1 hour at RT, essentially as described previously.
# PDGFR α T674I = target: T2, PDGFR α T674I (Homo sapiens, UniProt P16234, T674I); experiment: FRET-based kinase profiling, PDGFR α T674I; assay type: biochemical
# T2 construct: purchased Invitrogen
# Description: as §1
# PDGFR α D842V = target: T3, PDGFR α D842V (Homo sapiens, UniProt P16234, D842V); experiment: FRET-based kinase profiling, PDGFR α D842V; assay type: biochemical
# T3 construct: purchased Invitrogen
# Description: as §1
# RET V804L = target: T4, RET V804L (Homo sapiens, UniProt P07949, V804L); experiment: FRET-based kinase profiling, RET V804L; assay type: biochemical
# T4 construct: purchased Invitrogen
# Description: as §1
# FLT3 = target: T5, FLT3 (Homo sapiens, UniProt P36888); experiment: FRET-based kinase profiling, FLT3; assay type: biochemical
# T5 construct: purchased Invitrogen
# HIPK4 = target: T6, HIPK4 (Homo sapiens, UniProt Q8NE63); experiment: FRET-based kinase profiling, HIPK4; assay type: biochemical
# T6 construct: purchased Invitrogen
# RET Y791F = target: T7, RET Y791F (Homo sapiens, UniProt P07949, Y791F); experiment: FRET-based kinase profiling, RET Y791F; assay type: biochemical
# T7 construct: purchased Invitrogen
# Description: as §1
# PDGFR α = target: T8, PDGFR α (Homo sapiens, UniProt P16234); experiment: FRET-based kinase profiling, PDGFR α; assay type: biochemical
# T8 construct: purchased Invitrogen
# Description: as §1
# VEGFR3 = target: T9, VEGFR3 (Homo sapiens, UniProt P35916); experiment: FRET-based kinase profiling, VEGFR3; assay type: biochemical
# T9 construct: purchased Invitrogen
# Description: as §1
# CRAF [1] = target: T10, CRAF (Homo sapiens, UniProt P04049, Y340D/Y341D); experiment: FRET-based kinase profiling, C-RAF; assay type: biochemical; settings: 1 µM inhibitor, ATP at Km app
# FLT3 D835Y = target: T11, FLT3 D835Y (Homo sapiens, UniProt P36888, D835Y); experiment: FRET-based kinase profiling, FLT3 D835Y; assay type: biochemical
# T11 construct: purchased Invitrogen
# ERK2 = target: T12, ERK2 (Homo sapiens, UniProt P28482); experiment: ERK2 direct FRET kinase assay; assay type: biochemical; settings: 100 μM ATP; for pIC50: read-out: Inhibitor IC50, FRET Direct ERK2; for inhibition of ERK2 direct assay: FRET
# T12 construct: The following kinases were all full-length: B-RAF, unactive MEK1, active MEK1, unactive-fluorescein-labeled MEK1, active ERK2, and unactive ERK2; purchased Invitrogen
# Description: FRET-based kinase data was processed in two steps. […] In order to apply equation 1, the 0% and 100% phosphorylation controls were used to establish the minimum and maximum emission ratio values on each assay plate. The 0% phosphorylation control was obtained from a mock kinase reaction run in the absence of ATP. The 100% phosphorylation control was obtained from a mock kinase reaction containing fully phosphorphorylated control peptide. The percent phosphorylation was calculated using the following equation: […]
# BRAF V599E-MEK1-ERK2 = experiment: B-RAF V599E-MEK1-ERK2 triple cascade FRET assay; assay type: biochemical; settings: 100 μM ATP; read-out: Inhibitor IC50, FRET Triple BRAF V599E-MEK1-ERK2
# [2] = test system: B-RAF, B-RAF V599E, and C-RAF; experiment: RAF direct TR-FRET assays; assay type: biochemical; settings: 100 μM ATP
# Description: Development of the TR-FRET assay for RAF using a fluorescein-MEK1 substrate and terbium-labeled phospho-[Ser 217/221] MEK1 antibody has been described. Briefly, 200 nM of fluorescein-MEK1 was used as a substrate in a 10 µL assay. Reactions were conducted in the same 384-well plate type and kinase buffer as described for the FRET assays, initiated by the addition of ATP, and allowed to proceed for 1 hour at RT. After one hour, a 10 µL solution of EDTA and terbium-labeled phospho-[Ser 217/221] MEK1 antibody in 20 mM Tris, pH 7.5 and 0.01% NP-40 was added for a final well volume of 20 µL with final concentrations of antibody and EDTA at 2 nM and 10 mM, respectively. Following a 1 hour incubation at RT, plates were read as described previously. For TR-FRET-based assays, the average maximum signal to basal ratio ( ± standard deviation) obtained using eight different kinases was 8.9 ± 1.0. Inhibition assays were performed by adding 2.5 µL of inhibitor to a 5 µL solution of kinase and substrate, followed by 2.5 µL of ATP. […] The inhibitor studies were conducted in quadruplicate.
# BRAF-MEK1-ERK2 = experiment: B-RAF-MEK1-ERK2 triple cascade FRET assay; assay type: biochemical; settings: 100 μM ATP; read-out: Inhibitor IC50, FRET Triple BRAF-MEK1-ERK2
# CRAF-MEK1-ERK2 = experiment: C-RAF-MEK1-ERK2 triple cascade FRET assay; assay type: biochemical; settings: 100 μM ATP; read-out: Inhibitor IC50, FRET Triple CRAF-MEK1-ERK2
# MEK1-ERK2 = MEK1-ERK2 double cascade FRET assay; assay type: biochemical; settings: 100 μM ATP; for pIC50: read-out: Inhibitor IC50, FRET Double MEK1-ERK2; for inhibition of MEK1-ERK2 double cascade assay: FRET
# [3] = test system: B-RAF, B-RAF V599E, or C-RAF triple cascades; experiment: three RAF triple cascade FRET assays; assay type: biochemical; settings: 100 μM ATP; for pIC50: one value or range for the three RAF triple cascades
# BRAF = target: T13, BRAF (Homo sapiens, UniProt P15056); experiment: B-RAF direct TR-FRET assay (fluorescein-MEK1 substrate); assay type: biochemical; settings: 100 μM ATP; read-out: Inhibitor IC50, TR-FRET Direct BRAF
# T13 construct: The following kinases were all full-length: B-RAF, unactive MEK1, active MEK1, unactive-fluorescein-labeled MEK1, active ERK2, and unactive ERK2; purchased Invitrogen
# Description: (§2) Briefly, 200 nM of fluorescein-MEK1 was used as a substrate in a 10 µL assay. Reactions were conducted in the same 384-well plate type and kinase buffer as described for the FRET assays, initiated by the addition of ATP, and allowed to proceed for 1 hour at RT. […] MEK1 antibody in 20 mM Tris, pH 7.5 and 0.01% NP-40 was added for a final well volume of 20 µL with final concentrations of antibody and EDTA at 2 nM and 10 mM, respectively. Following a 1 hour incubation at RT, plates were read as described previously. […] Inhibition assays were performed by adding 2.5 µL of inhibitor to a 5 µL solution of kinase and substrate, followed by 2.5 µL of ATP. […] The inhibitor studies were conducted in quadruplicate.
# BRAF V599E = target: T14, BRAF V599E (Homo sapiens, UniProt P15056, V600E); experiment: B-RAF V599E direct TR-FRET assay (fluorescein-MEK1 substrate); assay type: biochemical; settings: 100 μM ATP; read-out: Inhibitor IC50, TR-FRET Direct BRAF V599E
# T14 construct: amino acids 416-766 for B-RAF V599E and 306-648 for C-RAF; purchased Invitrogen
# Description: as §2
# CRAF [4] = target: T10, CRAF; experiment: C-RAF direct TR-FRET assay (fluorescein-MEK1 substrate); assay type: biochemical; set-up: amino acids 416-766 for B-RAF V599E and 306-648 for C-RAF; purchased Invitrogen
# Description: as §2
# [5] = test system: activation of MEK1 by C-RAF; settings: ~300 nM MEK1 as substrate; read-out: IC50, inhibition of activation of MEK1 by C-RAF; cited from earlier work
# MEK1 = settings: cited from earlier work
# MEK1 activation = settings: read-out: IC50, inhibition of MEK1 activation in Swiss 3T3 cells; cited from earlier work
Compound,pIC50 (ERK2),inhibition of ERK2 direct assay (ERK2),pIC50 (BRAF V599E-MEK1-ERK2),pIC50 (BRAF-MEK1-ERK2),pIC50 (CRAF-MEK1-ERK2),pIC50 (MEK1-ERK2),inhibition of MEK1-ERK2 double cascade assay (MEK1-ERK2),pIC50 [3],"inhibition of B-RAF, B-RAF V599E and C-RAF TR-FRET direct assays [2]",also measured
"CNC(=O)c1cc(Oc2ccc(NC(=O)Nc3ccc(Cl)c(C(F)(F)F)c3)cc2)ccn1 [BAY-43-9006, Sorafenib]",,,,,,,,,,inhibition at 1 µM (RET): 77%; inhibition at 10 µM (PDGFR α T674I): 37%; inhibition at 10 µM (PDGFR α D842V): 3%; inhibition at 1 µM (RET V804L): 44%; inhibition at 1 µM (FLT3): 89%; inhibition at 1 µM (HIPK4): 45%; inhibition at 1 µM (RET Y791F): 80%; inhibition at 1 µM (PDGFR α): 33%; inhibition at 10 µM (PDGFR α): 75%; inhibition at 1 µM (VEGFR3): 40%; % inhibition C-RAF (CRAF [1]): 50%; inhibition at 1 µM (FLT3 D835Y): 45%
O=C1Nc2ccc(I)cc2/C1=C/c1cc(Br)c(O)c(Br)c1 [GW5074],< 6.40,no inhibition,[…],8.52,[…],< 6.40,no inhibition,[…],,pIC50 ([2]; range over the three RAF isoforms): […]; inhibition of the three RAF triple cascade assays ([3]; FRET): […]
COc1cccc(-c2cc(=O)c3ccccc3o2)c1N [PD98059],< 4.30,no inhibition,6.52,6.38,6.42,< 4.30,no inhibition,6.38 to 6.52,did not inhibit,"pIC50 (BRAF): < 4.30; pIC50 (BRAF V599E): < 4.30; pIC50 (CRAF [4]; 100 μM ATP, read-out: Inhibitor IC50, TR-FRET Direct CRAF): < 4.30; inhibition of C-RAF in direct TR-FRET assay (CRAF [4]; fluorescein-labeled unactivated MEK1 substrate): neither U0126 nor PD98059 significantly inhibited C-RAF; pIC50 [5]: 5.15 to 5.70"
CN[C@@H]1C[C@H]2O[C@@](C)([C@@H]1OC)n1c3ccccc3c3c4c(c5c6ccccc6n2c5c31)C(=O)NC4 [Staurosporine],,,7.16,7.25,,,,,,
N#CC(=C(/N)Sc1ccccc1N)/C(C#N)=C(/N)Sc1ccccc1N [U0126],< 4.30,,[…],[…],7.18,< 5.00,,[…],very weak inhibitory activity,"preferential inhibition of MEK1 activation over MEK1 (MEK1; radiometric kinase assays): ~ 100 fold; pIC50 (MEK1; read-out: reported IC50, inhibition of MEK1): 4.89; pIC50 (MEK1 activation): ~7.15"
Cc1ccc(NC(=O)c2cccc(N(C)C)c2)cc1NC(=O)c1ccc(O)cc1 [ZM336372],< 4.30,no inhibition,7.49,6.40,7.52,< 4.30,no inhibition,,,

# — article PMC2774691, “Fluorescent Cascade and Direct Assays for Characterization of RAF Signaling Pathway Inhibitors” (Current Chemical Genomics, 2008)
